The results in this text go back to the supplement of paper PMC12613149.

A short description of data set [1]: reversed-phase LC retention time (C18, 15 min MeOH gradient); higher = more hydrophobic / later elution.
Data set [2] is described as follows: collision cross section (TIMS, N2 drift gas) of the primary ion; higher = larger gas-phase ion size.
Setting [3] is: ionization mode: ESI-, ion species: [M-H]-.
Setting [4] is: ionization mode: ESI+, ion species: [M+H]+.

Take `CCCCNS(=O)(=O)c1ccccc1` [N-Butylbenzenesulfonamide]: in data set [1] (setting [3]), the “reversed-phase LC retention time” value stood at 12.8 min. In addition, the collision cross section in data set [2] (setting [3]) came out at 148.3 Å².
Turning to `CCCCNC(=O)OCC#CI` [3-Iodopropynyl butylcarbamate], the “reversed-phase LC retention time” value in data set [1] (setting [4]) worked out at 12.8 min. In addition, in data set [2] (setting [4]), the collision cross section was determined as 147.73 Å².
With `CC[C@@H](C(=O)[C@@H](C)[C@@H](O)[C@H](C)[C@@H]1O[C@@H]([C@@H](CC)C(=O)O)CC[C@@H]1C)[C@H]1O[C@]2(C=C[C@@H](O)[C@]3(CC[C@@](C)([C@H]4CC[C@](O)(CC)[C@H](C)O4)O3)O2)[C@H](C)C[C@@H]1C` [Salinomycin], in data set [1] (setting [3]), the “reversed-phase LC retention time” value came to 18.5 min. Also, the collision cross section in data set [2] (setting [3]) came to 263.17 Å².
On to `COCC(=O)Nc1c(I)c(C(=O)NCC(O)CO)c(I)c(C(=O)N(C)CC(O)CO)c1I` (configuration not stated) [Iopromide], for which the “reversed-phase LC retention time” value in data set [1] (setting [4]) came to 6.66 min; in data set [1] (setting [3]), 6.74 min. The collision cross section in data set [2] (setting [4]) was 215.51 Å²; in data set [2] (setting [3]) it was 212.29 Å².
Consider `CCCCC(CC)COC(=O)c1ccc(N(C)C)cc1` (configuration not stated), for which the “reversed-phase LC retention time” value in data set [1] (setting [4]) stood at 17.9 min. The collision cross section in data set [2] (setting [4]) worked out at 185.61 Å².
On the same counts, the results for `CC(C(=O)O)c1cccc(C(=O)c2ccccc2)c1` (configuration not stated) [Ketoprofen] are 13.5 min and 158.88 Å².
Taken in the same sequence, the figures for `CCCC1COC(Cn2cncn2)(c2ccc(Cl)cc2Cl)O1` (configuration not stated) [Propiconazole] were 15.7 min and 179.72 Å².
Taken in the same sequence, the figures for `CO/N=C(/C(=O)O)c1ccccc1CO/N=C(\C(=O)O)c1cccc(C(F)(F)F)c1` were 13.6 min and 195.58 Å².
For `CN1CCCC1c1cccnc1` (configuration not stated) [Nicotine], the “reversed-phase LC retention time” value in data set [1] (setting [4]) came out at 2.26 min. In addition, in data set [2] (setting [4]), the collision cross section was found to be 135.54 Å².
Regarding `COc1cc(O)c(C(=O)c2ccccc2)cc1S(=O)(=O)O` [Benzophenone-4], the “reversed-phase LC retention time” value in data set [1] (setting [3]) turned out to be 9.83 min. In data set [2] (setting [3]), this compound registered a collision cross section of 168.24 Å².
Taken in the same sequence, the figures for `CCc1cc(Cc2cc(CC)cc(C(C)(C)C)c2O)c(O)c(C(C)(C)C)c1` [2,2'-Methylenebis(4-ethyl-6-t-butylphenol)] were 19.3 min and 204.77 Å².
`O=C(O)C(F)(F)C(F)(F)C(F)(F)C(F)(F)C(F)(F)C(F)(F)C(F)(F)C(F)(F)C(F)(F)F` [Perfluorodecanoic acid]: the “reversed-phase LC retention time” value in data set [1] (setting [3]) stood at 16 min. Also, the collision cross section in data set [2] (setting [3]) is on record as 173.66 Å².
For `COc1cnc(OC)n2nc(NS(=O)(=O)c3c(OCC(F)F)cccc3C(F)(F)F)nc12` [Penoxsulam], the “reversed-phase LC retention time” value in data set [1] (setting [4]) came to 12.3 min. The same compound had a collision cross section in data set [2] (setting [4]) of 196.63 Å².
With `CCCc1nc2c(C)cc(-c3nc4ccccc4n3C)cc2n1Cc1ccc(-c2ccccc2C(=O)O)cc1` [Telmisartan], the “reversed-phase LC retention time” value in data set [1] (setting [4]) was 14.2 min; in data set [1] (setting [3]), 14.6 min. Moreover, the collision cross section in data set [2] (setting [4]) was determined as 231.26 Å²; in data set [2] (setting [3]) it was 237.73 Å².
Turning to `CCOC(=O)[C@H](CCc1ccccc1)N[C@@H](C)C(=O)N1CCC[C@H]1C(=O)O` [Enalapril], the “reversed-phase LC retention time” value in data set [1] (setting [4]) is 11.6 min; in data set [1] (setting [3]) it was 12.2 min. The collision cross section in data set [2] (setting [4]) is 187.31 Å²; in data set [2] (setting [3]), 193.85 Å².
Take `N#Cc1nn(-c2c(Cl)cc(C(F)(F)F)cc2Cl)c(N)c1S(=O)C(F)(F)F` (configuration not stated) [Fipronil]: the “reversed-phase LC retention time” value in data set [1] (setting [3]) was found to be 15.6 min. For the same compound, the collision cross section in data set [2] (setting [3]) was 177.2 Å².
As for `O=P(OCCCl)(OCCCl)OCCCl` [Tris(2-chloroethyl)phosphate], the “reversed-phase LC retention time” value in data set [1] (setting [4]) came out at 11.7 min. In data set [2] (setting [4]), this compound showed a collision cross section of 150.93 Å².
As for `CCC(=NOC/C=C/Cl)C1=C(O)CC(C2CCOCC2)CC1=O` (configuration not stated) [Tepraloxydim (two peaks)], the results for the “reversed-phase LC retention time” value in data set [1] (setting [4]) and in data set [1] (setting [3]) were 14.7 min and 9.17 min, respectively. In addition, the collision cross section turned out to be 186.68 Å² in data set [2] (setting [4]) and 181.89 Å² in data set [2] (setting [3]).
As to `O=C(O)C(F)(F)C(F)(F)C(F)(F)C(F)(F)C(F)(F)C(F)(F)C(F)(F)C(F)(F)F` [Perfluorononanoic acid], the “reversed-phase LC retention time” value in data set [1] (setting [3]) worked out at 15.4 min. The same compound gave a collision cross section in data set [2] (setting [3]) of 164.37 Å².
For the compound `Cn1c(=O)c2[nH]cnc2n(C)c1=O` [Theophyllin], the “reversed-phase LC retention time” value in data set [1] (setting [4]) came out at 6.64 min. In addition, the collision cross section in data set [2] (setting [4]) came out at 135.99 Å².
On the same counts, the results for `Nc1ccc(Cl)cc1` [4-Chloroaniline] are 8.59 min and 114.68 Å².
For `N#Cc1nn(-c2c(Cl)cc(C(F)(F)F)cc2Cl)c(N)c1C(F)(F)F` [Fipronil desulfinyl], in data set [1] (setting [3]), the “reversed-phase LC retention time” value stood at 15.4 min. Further, the collision cross section in data set [2] (setting [3]) stood at 168.16 Å².
With `c1ccc2c(c1)[nH]c1ncccc12` [Carboline], the entries for the “reversed-phase LC retention time” value in data set [1] (setting [4]) and in data set [1] (setting [3]) were 11.7 min and 12.9 min, respectively. In addition, the figures for the collision cross section in data set [2] (setting [4]) and in data set [2] (setting [3]) were 132.73 Å² and 129.53 Å², respectively.
With `Oc1c(Cl)c(Cl)c(Cl)c(Cl)c1Cl` [Pentachlorophenol], in data set [1] (setting [3]), the “reversed-phase LC retention time” value came to 13.8 min. The compound also showed a collision cross section in data set [2] (setting [3]) of 137.44 Å².
`O=c1cc(-c2ccc(O)cc2)oc2cc(O[C@@H]3O[C@H](CO)[C@@H](O)[C@H](O)[C@H]3O[C@@H]3OC[C@](O)(CO)[C@H]3O)cc(O)c12` [Apiin]: the “reversed-phase LC retention time” value in data set [1] (setting [4]) came to 10.3 min; in data set [1] (setting [3]), 10.1 min. The collision cross section turned out to be 232.7 Å² in data set [2] (setting [4]) and 224.84 Å² in data set [2] (setting [3]).
